In PubChem BioAssay (NCI):
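Step 1: Grow cells in 96-well plates. Step 2: Expose to compound for 48 hours at 5 concentrations. Step 3: Interpolate endpoints linearly; if unreached, use highest concentration. TGI denotes the concentration required for complete inhibition of growth.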

What was measured:
Test in all cases: DTP human tumour cell line panel, 48 h
[1] = test system: 786-0 renal
[2] = test system: A498 renal
[3] = test system: A549 NSCLC
[4] = test system: ACHN renal
[5] = test system: BT-549 breast
[6] = test system: CAKI-1 renal
[7] = test system: COLO 205 colon
[8] = test system: DU-145 prostate
[9] = test system: EKVX NSCLC
[10] = test system: HCC-2998 colon
[11] = test system: HCT-116 colon
[12] = test system: HCT-15 colon
[13] = test system: HL-60(TB) leukemia
[14] = test system: HOP-62 NSCLC
[15] = test system: HOP-92 NSCLC
[16] = test system: HS 578T breast
[17] = test system: HT29 colon
[18] = test system: IGROV1 ovarian
[19] = test system: K-562 leukemia
[20] = test system: KM12 colon
[21] = test system: LOX IMVI melanoma
[22] = test system: M14 melanoma
[23] = test system: MALME-3M melanoma
[24] = test system: MCF7 breast
[25] = test system: MDA-MB-231 breast
[26] = test system: MDA-MB-435
[27] = test system: MDA-N
[28] = test system: MOLT-4 leukemia
[29] = test system: NCI-H226 lung
[30] = test system: NCI-H23 lung
[31] = test system: NCI-H460 lung
[32] = test system: NCI-H522 lung
[33] = test system: NCI/ADR-RES ovarian
[34] = test system: OVCAR-3 ovarian
[35] = test system: OVCAR-4 ovarian
[36] = test system: OVCAR-5 ovarian
[37] = test system: OVCAR-8 ovarian
[38] = test system: PC-3 prostate
[39] = test system: RXF 393 renal
[40] = test system: SF-268 CNS
[41] = test system: SF-295 CNS
[42] = test system: SF-539 CNS
[43] = test system: SK-MEL-2 melanoma
[44] = test system: SK-MEL-28 melanoma
[45] = test system: SK-MEL-5 melanoma
[46] = test system: SK-OV-3 ovarian
[47] = test system: SN12C renal
[48] = test system: SNB-19 CNS
[49] = test system: SNB-75 CNS
[50] = test system: SR leukemia
[51] = test system: SW-620 colon
[52] = test system: T-47D breast
[53] = test system: TK-10 renal
[54] = test system: U251 CNS
[55] = test system: UACC-257 melanoma
[56] = test system: UACC-62 melanoma
[57] = test system: UO-31 renal

Compound: CCCCCCCC/C=C\CCCCCCC/C=C1/C[C@](/C=C/C(=O)OC)(CO)OC1=O
- TGI [1]: 10.3 µM
- TGI [2]: 21.2 µM
- TGI [3]: 17.3 µM
- TGI [4]: 16.7 µM
- TGI [5]: 17.8 µM
- TGI [6]: 12.5 µM
- TGI [7]: 5.04 µM
- TGI [8]: 23.4 µM
- TGI [9]: 23 µM
- TGI [10]: 10.1 µM
- TGI [11]: 15.5 µM
- TGI [12]: 20.5 µM
- TGI [13]: 10.3 µM
- TGI [14]: 19 µM
- TGI [15]: 20.3 µM
- TGI [16]: 9.29 µM
- TGI [17]: 20.9 µM
- TGI [18]: 23.7 µM
- TGI [19]: > 32.5 µM
- TGI [20]: 23.9 µM
- TGI [21]: 12.8 µM
- TGI [22]: 11.6 µM
- TGI [23]: 8.74 µM
- TGI [24]: 20.8 µM
- TGI [25]: 17.7 µM
- TGI [26]: 7.41 µM
- TGI [27]: 3.19 µM
- TGI [28]: > 21.5 µM
- TGI [29]: 15.8 µM
- TGI [30]: 24.9 µM
- TGI [31]: 19.9 µM
- TGI [32]: 17.6 µM
- TGI [33]: 24 µM
- TGI [34]: 24 µM
- TGI [35]: 16.9 µM
- TGI [36]: 20.3 µM
- TGI [37]: 19.2 µM
- TGI [38]: 14.5 µM
- TGI [39]: 28.5 µM
- TGI [40]: 19.7 µM
- TGI [41]: 17.1 µM
- TGI [42]: 2.84 µM
- TGI [43]: 27.6 µM
- TGI [44]: 10.2 µM
- TGI [45]: 18 µM
- TGI [46]: 24.3 µM
- TGI [47]: 14.8 µM
- TGI [48]: 20.3 µM
- TGI [49]: 20.4 µM
- TGI [50]: > 31.7 µM
- TGI [51]: 11.4 µM
- TGI [52]: 19.8 µM
- TGI [53]: 15.3 µM
- TGI [54]: 21.2 µM
- TGI [55]: 29.6 µM
- TGI [56]: 22.4 µM
- TGI [57]: 15 µM
